According to US10654847B2, “Substituted 2-(4-heterocyclylbenzyl)isoindolin-1-one analogs as positive allosteric modulators of the muscarinic acetylcholine receptor M1” (Vanderbilt University, priority 2011, dated 2020):

biological target: T1, mAChR M1 (UniProt P11229); assay: mAChR M1 cell-based functional assay (calcium mobilization, potentiation of EC20 acetylcholine response); conditions: % ACh maximum at 30 μM; mAChR M1-expressing CHO-K1 cells, calcium flux
T1 sequence (P11229 1-460): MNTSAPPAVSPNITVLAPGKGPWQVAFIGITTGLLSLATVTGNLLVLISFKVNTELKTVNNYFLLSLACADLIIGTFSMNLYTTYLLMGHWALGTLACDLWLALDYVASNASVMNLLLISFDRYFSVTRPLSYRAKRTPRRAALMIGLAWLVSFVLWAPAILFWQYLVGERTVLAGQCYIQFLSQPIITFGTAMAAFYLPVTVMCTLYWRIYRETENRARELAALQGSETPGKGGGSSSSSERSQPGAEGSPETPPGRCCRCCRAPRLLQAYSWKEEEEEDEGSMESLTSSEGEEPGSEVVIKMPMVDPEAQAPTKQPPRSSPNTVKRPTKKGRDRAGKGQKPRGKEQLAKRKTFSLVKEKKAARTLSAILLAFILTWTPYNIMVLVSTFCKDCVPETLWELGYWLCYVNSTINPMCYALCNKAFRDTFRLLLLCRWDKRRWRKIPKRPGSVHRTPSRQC
Description: Chinese hamster ovary (CHO-K1) cells stably expressing rat (r)M1 were purchased from the American Type Culture Collection and cultured according to their indicated protocol. […] To make stable rM2, hM2, rM3, hM4, and rM4 cell lines for use in calcium mobilization assays, these cells also were stably transfected with a chimeric G-protein (Gqi5) (provided by B. R. Conklin, University of California, San Francisco) using Lipofectamine 2000. rM1, hM1, rM3, hM3, rM5, and hM5 cells were grown in Ham's F-12 medium containing 10% heat-inactivated fetal bovine serum (FBS), 20 mM HEPES, and 50 μg/mL G418 sulfate. rM2-Gqi5, hM2-Gqi5, and hM4-Gqi5 cells were grown in the same medium also containing 500 μg/mL Hygromycin B. Stable rM4-Gqi5 cells were grown in DMEM containing 10% heat-inactivated FBS, 20 mM HEPES, 400 μg/mL G418 sulfate, and 500 μg/mL Hygromycin B.
For high throughput measurement of agonist-evoked increases in intracellular calcium, CHO-K1 cells stably expressing muscarinic receptors were plated in growth medium lacking G418 and hygromycin at 15,000 cells/20 μL/well in Greiner 384-well black-walled, tissue culture (TC)-treated, clear-bottom plates (VWR). Cells were incubated overnight at 37° C. and 5% CO2. […] Compound master plates were formatted in an 11 point CRC format (1:3 dilutions) in 100% DMSO with a starting concentration of 10 mM using the BRAVO liquid handler (Agilent). Test compound CRCs were then transferred to daughter plates (240 nL) using the Echo acoustic plate reformatter (Labcyte, Sunnyvale, Calif.) and then diluted into assay buffer (40 μL) to a 2× stock using a Thermo Fisher Combi (Thermo Fisher Scientific, Waltham, Mass.).
Calcium flux was measured using the Functional Drug Screening System (FDSS) 6000 (Hamamatsu Corporation, Tokyo, Japan) as an increase in the fluorescent static ratio. Compounds were applied to cells (20 μL, 2×) using the automated system of the FDSS 6000 at 4 s into the 300 s protocol and the data were collected at 1 Hz. […] Agonist activity was analyzed as a concentration-dependent increase in calcium mobilization upon compound addition. Positive allosteric modulator activity was analyzed as a concentration-dependent increase in the EC20 acetylcholine response. Antagonist activity was analyzed as a concentration-dependent decrease in the EC80 acetylcholine response. Concentration-response curves were generated using a four-parameter logistical equation in XLfit curve fitting software (IDBS, Bridgewater, N.J.) for Excel (Microsoft, Redmond, Wash.) or Prism (GraphPad Software, Inc., San Diego, Calif.).
The above described assay was also operated in a second mode where an appropriate fixed concentration of the present compounds were added to the cells after establishment of a fluorescence baseline for about 3 seconds, and the response in cells was measured. […] Data were reduced as described above and the EC50 values for the agonist in the presence of test compound were determined by nonlinear curve fitting. A decrease in the EC50 value of the agonist with increasing concentrations of the present compounds (a leftward shift of the agonist concentration-response curve) is an indication of the degree of muscarinic positive allosteric modulation at a given concentration of the present compound. An increase in the EC50 value of the agonist with increasing concentrations of the present compounds (a rightward shift of the agonist concentration response curve) is an indication of the degree of muscarinic antagonism at a given concentration of the present compound. The second mode also indicates whether the present compounds also affect the maximum response of the muscarinic receptor to agonists.
The calcium mobilization assay was also used to determine “efficacy”.

| Compound | Emax (%) |
| --- | --- |
| Cn1cc2cc(-c3cccc(CN4Cc5ncccc5C4=O)c3F)ccc2n1 [Example B106] | 41% |
| CN1Cc2ccc(-c3cc(F)c(CN4Cc5ncccc5C4=O)c(F)c3)cc2C1 [Example B107] | 56% |
| Cn1cc2c(-c3ccc(F)c(CN4Cc5ncccc5C4=O)c3)cccc2n1 [Example B110] | 61% |
| CC1c2ccccc2C(=O)N1Cc1ccc(-c2cnn(C)c2)cc1F (stereo not drawn) [Example B113] | <30% |
| O=S1(=O)c2ccccc2CN1Cc1ccc(-c2cnns2)cc1 [Example B117] | <30% |
| Cc1noc(-c2ccc(CN3Cc4ccccc4S3(=O)=O)cc2)n1 [Example B118] | <30% |
| O=C1c2ccccc2CN1Cc1ccc(-c2ccc3cc[nH]c3c2)cc1F [Example B121] | <30% |
| Cc1nnc(-c2ccc(CN3Cc4ccccc4S3(=O)=O)cc2)o1 [Example B123] | <30% |
| O=S1(=O)c2ccccc2CN1Cc1ccc(-n2cccc2)cc1 [Example B125] | <30% |

The next lines start with the values.

| Emax (%) | Compound |
| --- | --- |
| 56% | Cn1cc2ccc(-c3ccc(F)c(CN4Cc5ncccc5C4=O)c3)cc2n1 [Example B108] |
| 36% | Cn1cc2c(-c3cccc(CN4Cc5ncccc5C4=O)c3F)cccc2n1 [Example B109] |
| 42% | Cn1cc2cc(-c3ccc(F)c(CN4Cc5ncccc5C4=O)c3)ccc2n1 [Example B111] |
| 32% | Cn1cc2c(n1)CCN(c1ccc(CN3Cc4ncccc4C3=O)c(F)c1)C2 [Example B112] |
| <30% | Cn1ncc2cc(-c3ccc(CN4Cc5ccccc5C4=O)c(F)c3)ccc21 [Example B114] |
| <30% | O=S1(=O)c2ccccc2CN1Cc1ccc(-n2cccn2)cc1 [Example B115] |
| <30% | Cc1nc(-c2ccc(CN3Cc4ccccc4S3(=O)=O)cc2)cs1 [Example B116] |
| <30% | Cc1nc(-c2ccc(CN3Cc4ccccc4S3(=O)=O)cc2)no1 [Example B119] |
| <30% | O=S1(=O)c2ccccc2CN1Cc1ccc(-c2coc(-c3ccccc3)n2)cc1 [Example B120] |
| <30% | CSc1ncc(-c2ccc(CN3Cc4ccccc4C3=O)c(F)c2)cn1 [Example B122] |
| <30% | O=S1(=O)c2ccccc2CN1Cc1ccc(Oc2ccccc2)cc1 [Example B124] |

same assay, conditions: positive allosteric modulation of EC20 ACh response, mAChR M1 CHO-K1 cells; <5 estimated where no plateau

| Compound | pEC50 |
| --- | --- |
| Cn1cc2cc(-c3cccc(CN4Cc5ncccc5C4=O)c3F)ccc2n1 [Example B106] | 5.42 |
| CN1Cc2ccc(-c3cc(F)c(CN4Cc5ncccc5C4=O)c(F)c3)cc2C1 [Example B107] | 5.76 |
| Cn1cc2c(-c3ccc(F)c(CN4Cc5ncccc5C4=O)c3)cccc2n1 [Example B110] | 5.71 |
| CC1c2ccccc2C(=O)N1Cc1ccc(-c2cnn(C)c2)cc1F (stereo not drawn) [Example B113] | <5.00 |
| O=S1(=O)c2ccccc2CN1Cc1ccc(-c2cnns2)cc1 [Example B117] | <5.00 |
| Cc1noc(-c2ccc(CN3Cc4ccccc4S3(=O)=O)cc2)n1 [Example B118] | <5.00 |
| O=C1c2ccccc2CN1Cc1ccc(-c2ccc3cc[nH]c3c2)cc1F [Example B121] | <5.00 |
| Cc1nnc(-c2ccc(CN3Cc4ccccc4S3(=O)=O)cc2)o1 [Example B123] | <5.00 |
| O=S1(=O)c2ccccc2CN1Cc1ccc(-n2cccc2)cc1 [Example B125] | <5.00 |

Second part, the molecule after the results:

| pEC50 | Compound |
| --- | --- |
| 5.07 | Cn1cc2ccc(-c3ccc(F)c(CN4Cc5ncccc5C4=O)c3)cc2n1 [Example B108] |
| 5.14 | Cn1cc2c(-c3cccc(CN4Cc5ncccc5C4=O)c3F)cccc2n1 [Example B109] |
| 5.63 | Cn1cc2cc(-c3ccc(F)c(CN4Cc5ncccc5C4=O)c3)ccc2n1 [Example B111] |
| <5.00 | Cn1cc2c(n1)CCN(c1ccc(CN3Cc4ncccc4C3=O)c(F)c1)C2 [Example B112] |
| <5.00 | Cn1ncc2cc(-c3ccc(CN4Cc5ccccc5C4=O)c(F)c3)ccc21 [Example B114] |
| <5.00 | O=S1(=O)c2ccccc2CN1Cc1ccc(-n2cccn2)cc1 [Example B115] |
| <5.00 | Cc1nc(-c2ccc(CN3Cc4ccccc4S3(=O)=O)cc2)cs1 [Example B116] |
| <5.00 | Cc1nc(-c2ccc(CN3Cc4ccccc4S3(=O)=O)cc2)no1 [Example B119] |
| <5.00 | O=S1(=O)c2ccccc2CN1Cc1ccc(-c2coc(-c3ccccc3)n2)cc1 [Example B120] |
| <5.00 | CSc1ncc(-c2ccc(CN3Cc4ccccc4C3=O)c(F)c2)cn1 [Example B122] |
| <5.00 | O=S1(=O)c2ccccc2CN1Cc1ccc(Oc2ccccc2)cc1 [Example B124] |

same assay, conditions: positive allosteric modulation of EC20 ACh response, mAChR M1 CHO-K1 cells; >10 μM estimated where no plateau; read-out: EC50

| Compound | EC50 |
| --- | --- |
| Cn1cc2cc(-c3cccc(CN4Cc5ncccc5C4=O)c3F)ccc2n1 [Example B106] | 3.8 µM |
| CN1Cc2ccc(-c3cc(F)c(CN4Cc5ncccc5C4=O)c(F)c3)cc2C1 [Example B107] | 1.74 µM |
| Cn1cc2c(-c3ccc(F)c(CN4Cc5ncccc5C4=O)c3)cccc2n1 [Example B110] | 1.95 µM |
| CC1c2ccccc2C(=O)N1Cc1ccc(-c2cnn(C)c2)cc1F (stereo not drawn) [Example B113] | > 10 µM |
| O=S1(=O)c2ccccc2CN1Cc1ccc(-c2cnns2)cc1 [Example B117] | > 10 µM |
| Cc1noc(-c2ccc(CN3Cc4ccccc4S3(=O)=O)cc2)n1 [Example B118] | > 10 µM |
| O=C1c2ccccc2CN1Cc1ccc(-c2ccc3cc[nH]c3c2)cc1F [Example B121] | > 10 µM |
| Cc1nnc(-c2ccc(CN3Cc4ccccc4S3(=O)=O)cc2)o1 [Example B123] | > 10 µM |
| O=S1(=O)c2ccccc2CN1Cc1ccc(-n2cccc2)cc1 [Example B125] | > 10 µM |

More lines, now with the values ahead:

| EC50 | Compound |
| --- | --- |
| 8.51 µM | Cn1cc2ccc(-c3ccc(F)c(CN4Cc5ncccc5C4=O)c3)cc2n1 [Example B108] |
| 7.24 µM | Cn1cc2c(-c3cccc(CN4Cc5ncccc5C4=O)c3F)cccc2n1 [Example B109] |
| 2.34 µM | Cn1cc2cc(-c3ccc(F)c(CN4Cc5ncccc5C4=O)c3)ccc2n1 [Example B111] |
| > 10 µM | Cn1cc2c(n1)CCN(c1ccc(CN3Cc4ncccc4C3=O)c(F)c1)C2 [Example B112] |
| > 10 µM | Cn1ncc2cc(-c3ccc(CN4Cc5ccccc5C4=O)c(F)c3)ccc21 [Example B114] |
| > 10 µM | O=S1(=O)c2ccccc2CN1Cc1ccc(-n2cccn2)cc1 [Example B115] |
| > 10 µM | Cc1nc(-c2ccc(CN3Cc4ccccc4S3(=O)=O)cc2)cs1 [Example B116] |
| > 10 µM | Cc1nc(-c2ccc(CN3Cc4ccccc4S3(=O)=O)cc2)no1 [Example B119] |
| > 10 µM | O=S1(=O)c2ccccc2CN1Cc1ccc(-c2coc(-c3ccccc3)n2)cc1 [Example B120] |
| > 10 µM | CSc1ncc(-c2ccc(CN3Cc4ccccc4C3=O)c(F)c2)cn1 [Example B122] |
| > 10 µM | O=S1(=O)c2ccccc2CN1Cc1ccc(Oc2ccccc2)cc1 [Example B124] |
